The source of these data is US7858765B2, “OX40R binding agents” (Merck Serono SA, priority 2002, dated 2010).

Peptide text beside a SMILES is read from it.

The Kd is the equilibrium constant for the complex coming apart. One may read the IC50 as the midpoint of a concentration-inhibition curve. The Ki is the equilibrium dissociation constant of an inhibitor or competing ligand from its target.

The target in test [1] is T1, OX40R-IgG1 (Homo sapiens, UniProt P43489).
T1 construct: extracellular portion of human OX40R (amino acids 1-208 of SWISSPROT Acc. No P43489); human IgG1 constant region (hinge, CH2 and CH3); made in house; purified from the supernatant on protein G
T1 sequence (P43489 29-208): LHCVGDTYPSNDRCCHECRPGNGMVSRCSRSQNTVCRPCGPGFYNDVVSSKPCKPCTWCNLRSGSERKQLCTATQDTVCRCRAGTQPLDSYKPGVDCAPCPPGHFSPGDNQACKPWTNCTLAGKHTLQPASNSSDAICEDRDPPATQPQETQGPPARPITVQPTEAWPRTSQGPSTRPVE
The experiment in a line: Fluorescence quenching assay of OX40R-IgG1. It counts as binding. The method, then:
The fluorescence quenching assay was performed as previously described (Golabek A et al., 2000). OX40R-IgG1 (35 micrograms) was dissolved in 500 microliters of PBS and the fluorescence spectum was recorded at 295-420 nanometers with an excitation wavelength of 290 nanometers using a spectrofluorimeter (Perkin Elmer LS50B) with the slits set at 5 nanometers. Fluorescence spectra of human OX40R-IgG1 were then recorded in the presence of increasing concentrations (5-1000 nM) of P5 and P5-1 peptides after 15 minutes of equilibration. The fluorescence change at 336 nanometers was plotted versus peptide concentration and the resulting curves were analyzed by nonlinear regression fit with Prism® software (GraphPad).
The affinity of the peptides identified in Example 1 as inhibitor of OX40L-OX40R interaction was evaluated by fluorescence quenching spectroscopy, a technology allowing such measurements in solution, under native conditions and without beads or other supports. This method is based on monitoring the changes in the intrinsic fluorescence of a protein (OX40R-IgG1) upon its binding with another protein (P5 or P5-1). […]

The target in test [2] is T2, OX40L-OX40R interaction (OX40R-IgG1 / OX40L-CD8) (Homo sapiens, UniProt P43489).
T2 sequence (P43489 29-208): T1 sequence (P43489 29-208)
The test is described as follows: Alphascreen-based competition assay (displacement of OX40L-CD8 from OX40R-IgG1). The test is classed as binding. The conditions noted are these: for inhibition of binding of OX40R to OX40L (in words): Alphascreen-based competition assay. How it is done: Alphascreen™ modified acceptor and donor beads were purchased (Biosignal Packard). OX40R-IgG1 and OX40L-CD8 fusion proteins were immobilized, respectively, onto protein A-conjugated acceptor beads and, by the means of a biotinylated anti-CD8 antibody, onto streptavidin-conjugated donor beads.
The binding assay was performed using Costar® 384-well white polystyrene plates (Corning). Each well of a 384-well plate contained a reaction mix having a volume of 25 microliters. Each of the five components of the reaction mix (OX40R-IgG1, OX40L-CD8, biotinylated anti-CD8, streptavidin-conjugated donor beads, and Protein A-conjugated acceptor beads) was added in a volume of 5 microliters. All dilutions were made in assay buffer (Phosphate Buffer Saline and 0.1% BSA), with or without dimethyl sulfoxide (DMSO).
In the standard assay, OX40-IgG1 and OX40L-CD8 were incubated together for 30 minutes, and then biotinylated anti-CD8 antibody (10 nM) was added. Following another incubation period of 30 minutes, streptavidin donor beads (20 μg/ml) and Protein A acceptor beads (20 μg/ml) were added to each individual well. The plate was counted 1 hour later using a Packard Fusion™ reader (Biosignal Packard) set at a read time of 1 second/well. Owing to the light sensitivity of the donor and acceptor beads, the experiments were carried out under blue light and all incubation periods were performed at room temperature. The plate was read at an excitation wavelength of 680 nanometers combined with a shorter emission wavelength of 520-620 nanometers.
All KD, IC50 and EC50 values were calculated using Prism® software (Graphpad Software). The transformation of IC50 values into Ki values was performed using the Cheng-Prusoff equation (Cheng Y C and Prusoff W H, 1973).
The ability of two known competitors of OX40L-OX40R interactions (untagged recombinant human soluble OX40L and suramin), which are themselves unable to generate an Alphascreen™ signal in this assay in absence of OX40L-CD8, to displace OX40L-CD8 from OX40R-IgG1 was investigated. The displacement experiments were performed, taking into consideration the approximate KD value, with a concentration of OX40L-CD8 (40 nM) that was 4 times greater than that of the OX40R-IgG1 (10 nM). Increasing concentrations of OX40L (3 μM-0.1 pM) or suramin (1 mM[…]1 nM) were added to a reaction mixture also containing OX40-IgG1 (10 nM) and OX40L-CD8 (40 nM). […] This latter value for suramin is similar to reported values for inhibition of TNF-α binding to the TNF receptor (Gray P W et al., 1990).
The soluble components (OX40-IgG1, OX40L-CD8 and biotinylated anti-CD8 antibody) were mixed at the concentration described before for the competition assays with OX40L and suramin (FIG. 4), together with various concentrations of each peptide in a 5 microliter volume into a first addition step. The streptavidin donor and Protein A acceptor beads were added 30 minutes later. The plates were incubated for 2 hours in the dark, at room temperature and with shaking, before reading at a long excitation wavelength of 680 nm combined with a shorter emission wavelength of 520-620 nanometers, as described in Example 1.
Background: Bead proximity is the source of the signal in Alpha formats.

Test [3] has as its target T3, OX40R (Homo sapiens, UniProt P43489).
T3 sequence (P43489 29-277): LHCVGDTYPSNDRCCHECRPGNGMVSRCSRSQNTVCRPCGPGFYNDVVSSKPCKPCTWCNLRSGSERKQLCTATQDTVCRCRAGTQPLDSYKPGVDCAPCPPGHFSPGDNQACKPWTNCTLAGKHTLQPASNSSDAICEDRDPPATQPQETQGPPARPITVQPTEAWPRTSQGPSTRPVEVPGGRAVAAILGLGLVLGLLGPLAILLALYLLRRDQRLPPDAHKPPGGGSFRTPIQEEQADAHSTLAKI
The note with it: literature value; read-out: Kd of OX40L (homotrimer) for OX40R; cited from earlier work.

With `CC[C@H](C)[C@H](NC(=O)[C@H](CC(N)=O)NC(=O)[C@@H](NC(=O)[C@H](CCC(=O)O)NC(=O)[C@H](CCC(N)=O)NC(=O)[C@H](CO)NC(=O)[C@H](Cc1ccccc1)NC(=O)[C@H](Cc1ccc(O)cc1)NC(=O)CN)C(C)C)C(=O)N[C@@H](CO)C(=O)O` [P5-1, GYFSQEVNIS] (H-GYFSQEVNIS-OH; N-terminus and C-terminus assumed), the Kd in test [1] is roughly 0.0246 µM. For `CC[C@H](C)[C@H](N)C(=O)N[C@H](C(=O)N[C@@H](CC(N)=O)C(=O)N[C@@H](CS)C(=O)N[C@@H](CC(=O)O)C(=O)NCC(=O)N[C@@H](Cc1ccccc1)C(=O)N[C@@H](Cc1ccc(O)cc1)C(=O)N[C@@H](CC(C)C)C(=O)N[C@H](C(=O)N[C@@H](CO)C(=O)N[C@@H](CC(C)C)C(=O)N[C@@H](CCCCN)C(=O)NCC(=O)N[C@@H](Cc1ccc(O)cc1)C(=O)N[C@@H](Cc1ccccc1)C(=O)N[C@@H](CO)C(=O)N[C@@H](CCC(N)=O)C(=O)N[C@@H](CCC(=O)O)C(=O)N[C@H](C(=O)N[C@@H](CC(N)=O)C(=O)N[C@H](C(=O)N[C@@H](CO)C(=O)N[C@@H](CC(C)C)C(=O)N[C@@H](Cc1c[nH]cn1)C(=O)N[C@@H](Cc1ccc(O)cc1)C(=O)N[C@@H](CCC(N)=O)C(=O)N[C@@H](CCCCN)C(=O)N[C@@H](CC(=O)O)C(=O)N[C@@H](CCC(=O)O)C(=O)N[C@@H](CCC(=O)O)C(=O)O)[C@@H](C)CC)C(C)C)[C@@H](C)CC)[C@@H](C)CC` [P5] (H-IINCDGFYLISLKGYFSQEVNISLHYQKDEE-OH; N-terminus and C-terminus assumed), the “inhibition of binding of OX40R to OX40L (in words)” value in test [2] is recorded as “micromolar range”. Regarding `Cc1ccc(C(=O)Nc2ccc(S(=O)(=O)O)c3cc(S(=O)(=O)O)cc(S(=O)(=O)O)c23)cc1NC(=O)c1cccc(NC(=O)Nc2cccc(C(=O)Nc3cc(C(=O)Nc4ccc(S(=O)(=O)O)c5cc(S(=O)(=O)O)cc(S(=O)(=O)O)c45)ccc3C)c2)c1` [suramin, Suramin, reference compound], the IC50 in test [2] (OX40-IgG1 10 nM, OX40L-CD8 40 nM, read-out: IC50 for competition of OX40L-CD8 binding) came to 79 µM. In addition, in test [2] (OX40-IgG1 10 nM, OX40L-CD8 40 nM, read-out: Ki (Cheng-Prusoff from IC50)), the inhibition constant Ki worked out at 26.3 µM. On to “EKGFILTSQKEDEIMKVQNNSVIINCDGFYL (human OX40R binding peptides) [P4, peptide corresponding to amino acids 72-102 of human OX40L]”, for which, in test [2], the “inhibition of binding of OX40R to OX40L (in words)” value is “bind OX40R very poorly”. On to “OX40L: recombinant human soluble OX40L, extracellular portion, prepared as GST fusion in baculovirus system; b9 value is for natural homotrimer”, for which, in test [3], the Kd is 0.0002 to 0.0004 µM. Besides, the “-log IC50±SEM” value in test [2] (OX40-IgG1 10 nM, OX40L-CD8 40 nM) came to 8.23±0.35.
